In US20020035061A1, “COMPOSITIONS AND METHODS FOR TREATING INFECTIONS USING CATIONIC PEPTIDES ALONE OR IN COMBINATION WITH ANTIBIOTICS” (priority 1996, published 2002):
Read-outs that look alike come from different tables or passages of the source.

Tests used:
Assay type in all cases: cell-based
[1] = tested on: K. pneumoniae
[2] = tested on: S. maltophilia
[3] = tested on: S. aureus
[4] = tested on: E. cloacae
[5] = tested on: A. calcoaceticus
[6] = tested on: S. epidermidis
[7] = tested on: P. aeruginosa
[8] = tested on: S. marcescens
[9] = tested on: E. faecalis
[10] = tested on: E. coli

Row | Sequence | MIC ([1]; K. pneumoniae strain KP001) | MIC ([2]; S. maltophilia strain SMA002) | MIC ([3]; S. aureus strain SA093) | MIC ([4]; E. cloacae strain ECL007) | MIC ([5]; A. calcoaceticus strain AC002) | MIC ([6]; S. epidermidis strain SE010) | MIC ([7]; P. aeruginosa strain PA004) | MIC ([8]; S. marcescens strain SMS003) | MIC ([1]; K. pneumoniae KP001) | MIC ([2]; S. maltophilia SMA002) | MIC ([3]; S. aureus SA014) | MIC ([3]; S. aureus SA093) | MIC ([4]; E. cloacae ECL007) | MIC ([5]; A. calcoaceticus AC002) | MIC ([6]; S. epidermidis SE010) | MIC ([7]; P. aeruginosa PA004) | MIC ([8]; S. marcescens SMS003) | MIC ([9]; E. faecalis EFS001) | MIC ([9]; E. faecalis EFS008) | MIC ([10]; E. coli ECO005) | further results
1 | KRRWPWWPWRLI [MBI 11B7CNR] | 8 µg/mL | 32 µg/mL | 2 µg/mL | 64 µg/mL | 4 µg/mL | 4 µg/mL | 64 µg/mL | >128 µg/mL |  |  |  |  |  |  |  |  |  |  |  |  | MIC ([9]; E. faecalis strain EFS001): 4 µg/mL; MIC ([10]; E. coli strain ECO005): 8 µg/mL
2 | KRRWVWWVWRLI [MBI 11F4CNR] | 32 µg/mL | 32 µg/mL | 8 µg/mL | 32 µg/mL | 16 µg/mL | 8 µg/mL | 64 µg/mL | >128 µg/mL |  |  |  |  |  |  |  |  |  |  |  |  | MIC ([9]; E. faecalis strain EFS008): 32 µg/mL; MIC ([10]; E. coli strain ECO005): 32 µg/mL
3 | LRWPWWPW [MBI 11G26CN] |  |  |  |  |  |  |  |  | 32 µg/mL | 128 µg/mL | 4 µg/mL | 0.5 µg/mL | >128 µg/mL | 2 µg/mL | 4 µg/mL | >128 µg/mL | >128 µg/mL | 2 µg/mL | 4 µg/mL | 32 µg/mL | 
4 | LRWWWPWRRK [MBI 11G25CN] |  |  |  |  |  |  |  |  | 16 µg/mL | 32 µg/mL | 2 µg/mL | 1 µg/mL | >128 µg/mL | 2 µg/mL | 2 µg/mL | 64 µg/mL | >128 µg/mL | 2 µg/mL | 16 µg/mL | 8 µg/mL | 
5 | LWPWWPWRRK [MBI 11G24CN] |  |  |  |  |  |  |  |  | 16 µg/mL | 32 µg/mL | 2 µg/mL | 1 µg/mL | >128 µg/mL | 4 µg/mL | 4 µg/mL | 128 µg/mL | >128 µg/mL | 2 µg/mL | 8 µg/mL | 16 µg/mL | 
6 | PRIWKPKWRLPKR [MBI 11J01CN] |  |  |  |  |  |  |  |  | >128 µg/mL | >128 µg/mL | 16 µg/mL | 2 µg/mL | >128 µg/mL | 4 µg/mL | 32 µg/mL | >128 µg/mL | >128 µg/mL | 128 µg/mL | >128 µg/mL | 64 µg/mL | 
7 | RWWWPWRRK [MBI 11G28CN] |  |  |  |  |  |  |  |  | 64 µg/mL | 32 µg/mL | 4 µg/mL | 1 µg/mL | >128 µg/mL | 2 µg/mL | 4 µg/mL | 128 µg/mL | >128 µg/mL | 4 µg/mL | 32 µg/mL | 8 µg/mL | 
8 | WPWWPWRRK [MBI 11G27CN] |  |  |  |  |  |  |  |  | 32 µg/mL | 32 µg/mL | 4 µg/mL | 1 µg/mL | >128 µg/mL | 2 µg/mL | 8 µg/mL | 128 µg/mL | >128 µg/mL | 8 µg/mL | 32 µg/mL | 16 µg/mL | 
9 | WWRWPWWPWRRK [MBI 11A10CN] | 16 µg/mL | 32 µg/mL | 2 µg/mL | 64 µg/mL | 4 µg/mL | 4 µg/mL | 64 µg/mL | >128 µg/mL |  |  |  |  |  |  |  |  |  |  |  |  | MIC ([3]; S. aureus strain SA014): 4 µg/mL; MIC ([9]; E. faecalis strain EFS001): 4 µg/mL; MIC ([9]; E. faecalis strain EFS008): 16 µg/mL; MIC ([10]; E. coli strain ECO005): 16 µg/mL
